Assays:
Test in all cases: relative viability (nuclei count vs DMSO), 5 days (fraction); higher = more cells survive
NCI-H522 = system: NCI-H522
Outline: (§1)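 Lung cancer cell lines were seeded in 1536-well plates and dosed by pin tool the next day, with either a single drug or a fixed anchor-drug dose combined with five library-drug doses (not always all listed) spaced in √10 steps. Five days later, one step fixed the cells and stained their nuclei (final 0.05% Triton X-100, 1% formaldehyde, 1 ug/ml Hoechst), and nuclei were counted on 4× images. Relative viability is the nuclei count in treated wells divided by the count in vehicle wells, and each value is the median of duplicate plates.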

NCI-H1944 = system: NCI-H1944
Outline: as §1

LOU-NH91 = system: LOU-NH91
Outline: as §1

NCI-H2170 = system: NCI-H2170
Outline: as §1

LCLC-103H = system: LCLC-103H
Outline: as §1

NCI-H358 = system: NCI-H358
Outline: as §1

SK-MES-1 = system: SK-MES-1
Outline: as §1

NCI-H1993 = system: NCI-H1993
Outline: as §1

NCI-H2023 = system: NCI-H2023
Outline: as §1

COR-L 105 = system: COR-L 105
Outline: as §1

LXF-289 = system: LXF-289
Outline: as §1

NCI-H1792 = system: NCI-H1792
Outline: as §1

NCI-H520 = system: NCI-H520
Outline: as §1

H3255 = system: H3255
Outline: as §1

HCC-827 = system: HCC-827
Outline: as §1

SW 900 = system: SW 900
Outline: as §1

A-427 = system: A-427
Outline: as §1

NCI-H2087 = system: NCI-H2087
Outline: as §1

NCI-H1975 = system: NCI-H1975
Outline: as §1

NCI-H1915 = system: NCI-H1915
Outline: as §1

SW 1573 = system: SW 1573
Outline: as §1

NCI-H1793 = system: NCI-H1793
Outline: as §1

`CN1CCN(CCOc2cc(OC3CCOCC3)c3c(Nc4c(Cl)ccc5c4OCO5)ncnc3c2)CC1` [Saracatinib] + Cc1nc(Nc2ncc(C(=O)Nc3c(C)cccc3Cl)s2)cc(N2CCN(CCO)CC2)n1 [Dasatinib] (partner 0.075 µM) was tested. Which relative viability (NCI-H522; first compound 0.02 µM) did it give?
The relative viability was 0.88.

What about the relative viability (NCI-H522; first compound 0.6325 µM) of the same compound?
Its relative viability is 0.864.

What about the relative viability (NCI-H522; first compound 2 µM) of the same compound?
Its relative viability is 0.8.

What about the relative viability (NCI-H1944; first compound 0.02 µM) of the same compound?
The relative viability was 0.219.

What about the relative viability (NCI-H1944; first compound 0.6325 µM) of the same compound?
Its relative viability is 0.182.

And the relative viability (NCI-H1944; first compound 2 µM)?
Its relative viability is 0.181.

What about the relative viability (LOU-NH91; first compound 0.02 µM) of the same compound?
The relative viability was 0.507.

And the relative viability (LOU-NH91; first compound 0.2 µM)?
Its relative viability is 0.429.

What about the relative viability (LOU-NH91; first compound 0.6325 µM) of the same compound?
The relative viability was 0.418.

What about the relative viability (LOU-NH91; first compound 2 µM) of the same compound?
The relative viability was 0.419.

What about the relative viability (NCI-H2170; first compound 0.02 µM) of the same compound?
Its relative viability is 0.766.

What about the relative viability (NCI-H2170; first compound 0.2 µM) of the same compound?
Its relative viability is 0.486.

What about the relative viability (NCI-H2170; first compound 0.6325 µM) of the same compound?
Its relative viability is 0.548.

And the relative viability (NCI-H2170; first compound 2 µM)?
The relative viability was 0.265.

What about the relative viability (LCLC-103H; first compound 0.02 µM) of the same compound?
Its relative viability is 0.475.

And the relative viability (LCLC-103H; first compound 0.2 µM)?
Its relative viability is 0.496.

What about the relative viability (LCLC-103H; first compound 0.6325 µM) of the same compound?
The relative viability was 0.466.

What about the relative viability (LCLC-103H; first compound 2 µM) of the same compound?
Its relative viability is 0.515.

And the relative viability (NCI-H358; first compound 0.02 µM)?
The relative viability was 0.168.

What about the relative viability (NCI-H358; first compound 0.2 µM) of the same compound?
The relative viability was 0.16.

What about the relative viability (NCI-H358; first compound 0.6325 µM) of the same compound?
Its relative viability is 0.18.

What about the relative viability (NCI-H358; first compound 2 µM) of the same compound?
The relative viability was 0.103.

What about the relative viability (SK-MES-1; first compound 0.02 µM) of the same compound?
Its relative viability is 0.4.

What about the relative viability (SK-MES-1; first compound 0.2 µM) of the same compound?
The relative viability was 0.289.

What about the relative viability (SK-MES-1; first compound 0.6325 µM) of the same compound?
The relative viability was 0.233.

And the relative viability (SK-MES-1; first compound 2 µM)?
The relative viability was 0.186.

What about the relative viability (NCI-H1993; first compound 0.02 µM) of the same compound?
The relative viability was 0.589.

And the relative viability (NCI-H1993; first compound 0.2 µM)?
Its relative viability is 0.528.

What about the relative viability (NCI-H1993; first compound 0.6325 µM) of the same compound?
The relative viability was 0.527.

And the relative viability (NCI-H1993; first compound 2 µM)?
Its relative viability is 0.501.

What about the relative viability (NCI-H2023; first compound 0.02 µM) of the same compound?
Its relative viability is 0.664.

What about the relative viability (NCI-H2023; first compound 0.2 µM) of the same compound?
The relative viability was 0.651.

What about the relative viability (NCI-H2023; first compound 0.6325 µM) of the same compound?
Its relative viability is 0.608.

And the relative viability (NCI-H2023; first compound 2 µM)?
Its relative viability is 0.553.

What about the relative viability (COR-L 105; first compound 0.02 µM) of the same compound?
The relative viability was 0.448.

And the relative viability (COR-L 105; first compound 0.2 µM)?
Its relative viability is 0.457.

What about the relative viability (COR-L 105; first compound 0.6325 µM) of the same compound?
Its relative viability is 0.376.

What about the relative viability (COR-L 105; first compound 2 µM) of the same compound?
The relative viability was 0.242.

And the relative viability (LXF-289; first compound 0.02 µM)?
Its relative viability is 0.224.

And the relative viability (LXF-289; first compound 0.2 µM)?
The relative viability was 0.218.

What about the relative viability (LXF-289; first compound 0.6325 µM) of the same compound?
The relative viability was 0.185.

What about the relative viability (LXF-289; first compound 2 µM) of the same compound?
The relative viability was 0.212.

What about the relative viability (NCI-H1792; first compound 0.02 µM) of the same compound?
The relative viability was 0.824.

And the relative viability (NCI-H1792; first compound 0.2 µM)?
Its relative viability is 0.566.

And the relative viability (NCI-H1792; first compound 0.6325 µM)?
Its relative viability is 0.894.

What about the relative viability (NCI-H1792; first compound 2 µM) of the same compound?
The relative viability was 0.711.

And the relative viability (NCI-H520; first compound 0.02 µM)?
Its relative viability is 0.21.

And the relative viability (NCI-H520; first compound 0.6325 µM)?
Its relative viability is 0.194.

What about the relative viability (NCI-H520; first compound 2 µM) of the same compound?
Its relative viability is 0.244.

And the relative viability (H3255; first compound 0.02 µM)?
The relative viability was 0.389.

And the relative viability (H3255; first compound 0.2 µM)?
The relative viability was 0.303.

What about the relative viability (H3255; first compound 0.6325 µM) of the same compound?
The relative viability was 0.344.

What about the relative viability (H3255; first compound 2 µM) of the same compound?
The relative viability was 0.267.

And the relative viability (HCC-827; first compound 0.02 µM)?
Its relative viability is 0.3.

And the relative viability (HCC-827; first compound 0.2 µM)?
The relative viability was 0.136.

What about the relative viability (HCC-827; first compound 0.6325 µM) of the same compound?
The relative viability was 0.22.

And the relative viability (HCC-827; first compound 2 µM)?
Its relative viability is 0.131.

And the relative viability (SW 900; first compound 0.02 µM)?
Its relative viability is 0.559.

And the relative viability (SW 900; first compound 0.2 µM)?
Its relative viability is 0.549.

What about the relative viability (SW 900; first compound 0.6325 µM) of the same compound?
Its relative viability is 0.548.

And the relative viability (SW 900; first compound 2 µM)?
The relative viability was 0.549.

What about the relative viability (A-427; first compound 0.02 µM) of the same compound?
Its relative viability is 0.658.

What about the relative viability (A-427; first compound 0.2 µM) of the same compound?
Its relative viability is 0.652.

What about the relative viability (A-427; first compound 0.6325 µM) of the same compound?
The relative viability was 0.691.

What about the relative viability (A-427; first compound 2 µM) of the same compound?
Its relative viability is 0.777.

What about the relative viability (NCI-H2087; first compound 0.02 µM) of the same compound?
Its relative viability is 0.807.

And the relative viability (NCI-H2087; first compound 0.2 µM)?
The relative viability was 0.69.

And the relative viability (NCI-H2087; first compound 0.6325 µM)?
The relative viability was 0.928.

What about the relative viability (NCI-H2087; first compound 2 µM) of the same compound?
The relative viability was 0.656.

What about the relative viability (NCI-H1975; first compound 0.02 µM) of the same compound?
The relative viability was 0.487.

And the relative viability (NCI-H1975; first compound 0.2 µM)?
The relative viability was 0.343.

What about the relative viability (NCI-H1975; first compound 0.6325 µM) of the same compound?
Its relative viability is 0.372.

And the relative viability (NCI-H1975; first compound 2 µM)?
The relative viability was 0.253.

What about the relative viability (NCI-H1915; first compound 0.02 µM) of the same compound?
Its relative viability is 0.308.

What about the relative viability (NCI-H1915; first compound 0.2 µM) of the same compound?
The relative viability was 0.292.

What about the relative viability (NCI-H1915; first compound 0.6325 µM) of the same compound?
Its relative viability is 0.282.

And the relative viability (NCI-H1915; first compound 2 µM)?
The relative viability was 0.322.

What about the relative viability (SW 1573; first compound 0.02 µM) of the same compound?
Its relative viability is 0.463.

And the relative viability (SW 1573; first compound 0.2 µM)?
The relative viability was 0.454.

What about the relative viability (SW 1573; first compound 0.6325 µM) of the same compound?
Its relative viability is 0.489.

What about the relative viability (SW 1573; first compound 2 µM) of the same compound?
The relative viability was 0.336.

And the relative viability (NCI-H1793; first compound 0.02 µM)?
Its relative viability is 0.439.

What about the relative viability (NCI-H1793; first compound 0.6325 µM) of the same compound?
The relative viability was 0.426.

And the relative viability (NCI-H1793; first compound 2 µM)?
The relative viability was 0.341.

From the supplement of paper PMC10307832
